Patent US7612076B2, “Piperazinyl-pyridine derivatives” (Hoffman-La Roche Inc., priority 2004, dated 2009)
pKi: −log10 of the molar value.

Target: T1, histamine 3 receptor (H3R) (Homo sapiens, UniProt Q9Y5N1)
T1 construct: expressed in transfected cells; host or cells: CHO cells (HR3-CHO cell line), membrane preparation
Experiment: Binding Assay with 3H-(R)α-Methylhistamine (competition binding, membrane of the human HR3-CHO cell line)
Details: competition binding vs 3H(R)α-Methylhistamine (1 nM = Kd), 1 hour room temperature, Ki calculated from IC50 by Cheng-Prusoff
Protocol: Binding Assay with ^3H—(R)α-Methylhistamine
Saturation binding experiments were performed using HR3-CHO membranes prepared as described in Takahashi, K, Tokita, S., Kotani, H. (2003) J. Pharmacol. Exp. Therapeutics 307, 213-218.
An appropriate amount of membrane (60 to 80 μg protein/well) was incubated with increasing concentrations of ^3H(R)α-Methylhistamine di-hydrochloride (0.10 to 10 nM). Non specific binding was determined using a 200 fold excess of cold (R)α-Methylhistamine dihydrobromide (500 nM final concentration). The incubation was carried out at room temperature (in deep-well plates shaking for three hours). The final volume in each well was 250 μl. The incubation was followed by rapid filtration on GF/B filters (pre-soaked with 100 μl of 0.5% PEI in Tris 50 mM shaking at 200 rpm for two hours). The filtration was made using a cell-harvester and the filter plates were then washed five times with ice cold washing buffer containing 0.5 M NaCl. After harvesting, the plates were dried at 55° C. for 60 min, then we added scintillation fluid (Microscint 40, 40 microl in each well) and the amount of radioactivity on the filter was determined in Packard top-counter after shaking the plates for two hours at 200 rpm at room temperature.
Binding Buffer: 50 mM Tris-HCl pH 7.4 and 5 mM MgCl2×6H2O pH 7.4. Washing Buffer: 50 mM Tris-HCl pH 7.4 and 5 mM MgCl2×6H2O and 0.5 M NaCl pH 7.4.
Indirect measurement of affinity of H3R inverse agonists: twelve increasing concentrations (ranging from 10 μM to 0.3 nM) of the selected compounds were always tested in competition binding experiments using membrane of the human HR3-CHO cell line. An appropriate amount of protein, e.g. approximately 500 cpm binding of RAMH at Kd, were incubated for 1 hour at room temperature in 250 μl final volume in 96-well plates in presence of ^3H(R)α-Methylhistamine (1 nM final concentration=Kd). […]
All compounds were tested at a single concentration in duplicates. […] Ki's were calculated from IC50 based on Cheng-Prusoff equation (Cheng, Y, Prusoff, W H (1973) Biochem Pharmacol 22, 3099-3108).

T1 sequence (Q9Y5N1 whole entry): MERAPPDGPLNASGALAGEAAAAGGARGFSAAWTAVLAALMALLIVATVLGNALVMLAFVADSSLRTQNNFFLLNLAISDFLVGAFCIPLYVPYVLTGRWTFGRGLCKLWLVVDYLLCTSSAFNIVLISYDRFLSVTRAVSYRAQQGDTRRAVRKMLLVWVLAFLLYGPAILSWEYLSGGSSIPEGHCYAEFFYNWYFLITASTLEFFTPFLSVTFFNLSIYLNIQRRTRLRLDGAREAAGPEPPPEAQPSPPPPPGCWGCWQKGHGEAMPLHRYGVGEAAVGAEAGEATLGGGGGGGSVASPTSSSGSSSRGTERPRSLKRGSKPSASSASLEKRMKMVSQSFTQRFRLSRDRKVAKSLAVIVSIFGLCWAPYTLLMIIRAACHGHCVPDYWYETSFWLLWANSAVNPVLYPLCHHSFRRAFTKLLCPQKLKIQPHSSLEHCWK

Going from `O=C(Nc1ccnc(N2CCN(C3CCCC3)CC2)c1)C1CCCCC1` [Example 11, cyclohexanecarboxylic acid [2-(4-cyclopentyl-piperazin-1-yl)-pyridin-4-yl]-amide] to `O=C(Nc1ccnc(N2CCN(C3CCCC3)CC2)c1)N1CCC(F)CC1` [Example 66, 4-fluoro-piperidine-1-carboxylic acid [2-(4-cyclopentyl-piperazin-1-yl)-pyridin-4-yl]-amide], the pKi falls from 8.07 to 7.31 (0.76 log units). The first binds more tightly here.

`O=C(Nc1cc(N2CCN(C3CCCC3)CC2)ccn1)c1cccc(F)c1` [Example 48, N-[4-(4-cyclopentyl-piperazin-1-yl)-pyridin-2-yl]-3-fluoro-benzamide] showed a pKi of 7.12.
